In EP0523873A1, “Non-substrate peptide inhibitors of farnesyl protein transferase” (MERCK & CO. INC., priority 1991, dated 1993):
Like-named read-outs stand apart in the source and are kept apart here. Square brackets hold non-standard residues; d marks the D form. Peptide text beside a SMILES is read from it. Phe(4-F) = N[C@@H](Cc1ccc(F)cc1)C(=O)O

Key:
[1] = target: farnesyl-protein transferase (bovine brain) (Bos taurus, UniProt P29702+P49355); settings: read-out: KM for FPP; 30°C, 50 mM HEPES, pH 7.5, 5 mM MgCl2, 5 mM dithiothreitol
Description: (§1) Polyisoprenylation of Ras- [³H]Farnesyldiphosphate (FPP) (20 Ci/mmol) was purchased from New England Nuclear. Farnesyl-protein transferase activity assays were carried out as 30°C unless noted otherwise. […] After thermally pre-equilibrating the assay mixture in the absence of enzyme, reactions were initiated by the addition of farnesyl-protein transferase and stopped at timed intervals by the addition of 1 M HCl in ethanol (1 mL). The quenched reactions were allowed to stand for 15 minutes (to complete the precipitation process). After adding 2 mL of 100% ethanol, the reactions were vacuum-filtered through Whatman GF/C filters. Filters were washed four times with 2 mL aliquots of 100% ethanol, mixed with scintillation fluid (10 mL) and then counted in a Beckman LS3801 scintillation counter.
(§2) For inhibition studies, assays were run as described above, except putative inhibitors were added at the concentrations indicated. IC₅₀ values were determined with both farnesyl-protein transferase substrates at their KM concentrations.
Farnesyl-protein transferase was prepared from bovine brain. All purification steps were performed at 4°C. Cerebral lobes from bovine brains were homogenized in lysis buffer containing 50 mM. Tris-Cl, pH 8.0, 1 mM EGTA, 1 mM MgCl₂, 5 mM dithiothreitol, 10 µg/mL aprotinin, 0.5 mM phenylmethyl sulfonyl fluoride (PMSF), 2 µg/mL anitpain and 2 µg/mL leupeptin. […]

[2] = target: T1, Farnesyl-protein transferase from bovine brain (partially purified) (Bos taurus, UniProt P29702+P49355); experiment: Inhibition of Ras farnesylation in vitro by tetrapeptides; assay type: biochemical
T1 construct: Farnesyl-protein transferase was prepared from bovine brain; from tissue; host or cells: bovine brain (cerebral lobes); Ras substrate expressed in E. coli
Description: as §1, §2
Farnesyl-protein transferase was prepared from bovine brain. All purification steps were performed at 4°C. Cerebral lobes from bovine brains were homogenized in lysis buffer containing 50 mM. Tris-Cl, pH 8.0, 1 mM EGTA, 1 mM MgCl₂, 5 mM dithiothreitol, 10 µg/mL aprotinin, 0.5 mM phenylmethyl sulfonyl fluoride (PMSF), 2 µg/mL anitpain and 2 µg/mL leupeptin. Cellular debris and membranes were removed by centrifugation (10,000 g for 20 minutes followed by 100,000 g for 30 minutes). The supernatant was loaded directly onto a column (30 cm x 20 cm²) [formula] of DEAE-Sephacel that had been equilibrated with lysis buffer. The column was washed with the same buffer and proteins were eluted with a linear gradient of NaCL (0-500 mM, 1 L + 1 L) [formula] in the same buffer. Fractions (20 mL) were collected and those containing farnesyl-protein transferase activity were pooled. Each pool was then applied to an ω-Aminooctyl agarose column (30 cm x 4.9 cm²) [formula] and eluted with a linear gradient of NaCl (0-500 mM, 500 mL + 500 mL) [formula] in lysis buffer. Fractions containing farnesylprotein transferase were pooled. For most assays further partial purifiation was achieved by HPLC using a Mono Q H.R. 10/10 column and eluting farnesyl-protein transferase activity with a 0-0.3 M NaCl gradient over 85 minutes at 2 ml/min.
Farnesyl-protein transferase from bovine brain was chromatographed on DEAE-Sephacel (Pharmacia, 0-0.8 M NaCl gradient elution), N-octyl agarose (Sigma, 0-0.6 M NaCl gradient elution), and a Mono Q HPLC column (Pharmacia, 0.0.3M NaCl gradient). […] Data presented in the Table 2 are the average of 2-5 determinations. Single capital letter amino acid abbreviations are used above.

[3] = test system: partially pure bovine brain farnesyl-protein transferase; experiment: Tetrapeptides tested as farnesylation substrates with [3H]FPP (TLC / autoradiography); assay type: biochemical; settings: peptide 200 µM, 0.5 µM [3H]-FPP, 30 minutes at 30°C
Text: (§3) When a peptide was used as the acceptor substrate, there were two changes to the assay: (1) Ras protein was excluded and, (2) the reactions were stopped by the addition of one tenth volume of 0.5 M EDTA. A portion of the reaction mixture was spotted onto a TLC plate (silica gel 60 thin layer chromatography plates (20 cm x 20 cm, 0.25 mm layer thickness) [formula] were from E. Merck (Darrnstadt)) and eluted with either ethyl acetate:pyridine:acetic acid:water (10:5:1:3) or n-propanol:water (7:3) elution systems. After drying under vacuum, the plates were sprayed with En³Hance and exposed to X-ray film at -70°C.
CAAX tetrapeptides and other tetrapeptides including Cys-Xaa¹-Xaa²-Xaa³ were tested as farnesylation substrates using [³H]FPP and partially pure bovine brain farnesyl-protein transferase.
The indicated peptides at 200 µM were incubated with partially pure bovine farnesyl-protein transferase and 0.5 µM [3H]-FPP for 30 minutes at 30°C. Autoradiographic exposure time was overnight (15-20 hours).

[4] = test system: farnesyl-protein transferase; experiment: Mechanism of inhibition using homogenous, pure farnesyl-protein transferase; assay type: biochemical, bovine
Description: To prepare pure enzyme, the […], […], was covalently bound to Affigel-10 under anhydrous conditions as described by the manufacture (15 µmol peptide per 1 mL of Affigel-10). Unreacted resin was treated with ethanolamine. After multiple passes of ω-aminooctyl-agarose-column-purified protein over the peptide column, the column was washed and eluted as described by Reiss, et al., (1990) ibid, to recover farnesyl-protein transferase activity.
To further verify that Cys-Xaa¹-Xaa²-Xaa³ were interacting with the active site of farnesyl-protein transfer, CIFM (SEQ ID NO: 2) was evaluated for its mechanism of inhibition using homogenous, pure farnesyl-protein transferase.

[5] = test system: farnesyl-protein transferase; experiment: Tetrapeptides tested as farnesylation substrates ([3H]FPP, TLC and autoradiography); assay type: biochemical; settings: [³H]FPP, partially pure bovine brain farnesyl-protein transferase, TLC, autoradiography
Text: as §3
CAAX tetrapeptides and other tetrapeptides including Cys-Xaa¹-Xaa²-Xaa³ were tested as farnesylation substrates using [³H]FPP and partially pure bovine brain farnesyl-protein transferase. […] Thin layer chromatography (TLC) conditions were developed which resolved the substrates farnesyl diphosphate (Rf = 0.06) [formula] and CVLS (Rf = 0.28) [formula] and product S-farnesyl-CVLS (Rf = 0.58) [formula] . These Rf values reflect TLC conditions using ethylacetate: pyridine:acetic acid:water (10:5:1:3) as the elutent. […] Control peptides having a Cys to Ser substitution were not substrates. […]

[6] = test system: farnesyl-protein transferase; settings: earlier findings (Schaber et al., ibid); cited from earlier work
[7] = Ras-CVLS at 3.5 µM, 0.25 µM [3H]FPP (both substrates at KM), average of 2-5 determinations, read-out: IC50

IC50 [2, 7]	Farnesylation Substrate [3]	Molecule	other results
	- (- < 1% conversion)	CSCC[C@H](NC(=O)[C@H](Cc1ccccc1)NC(=O)[C@@H](NC(=O)[C@@H](N)CS)C(C)C)C(=O)O [CVFM, Cys-Val-Phe-Met]	
	- (- < 1% conversion)	CC(C)C[C@H](NC(=O)[C@@H](NC(=O)[C@@H](N)CO)C(C)C)C(=O)N[C@@H](CO)C(=O)O [SVLS] (H-SVLS-OH)	

The remaining lines, values behind:

Molecule	IC50 [2, 7]	Farnesylation Substrate [3]	other results
CC(C)=CCC/C(C)=C/CC/C(C)=C/CO[P@@](=O)(O)OP(=O)(O)O (stereo in doubt) [FPP, farnesyl diphosphate]			Km [1]: 0.25 µM
CC[C@H](C)[C@H](NC(=O)[C@H](C)NC(=O)[C@@H](N)CS)C(=O)N[C@@H](CCSC)C(=O)O [CAIM] (H-CAIM-OH)	200 nM	+ (+ > 90% [3H] farnesyl diphosphate converted to [3H] farnesyl tetrapeptide)	
CC[C@H](C)[C@H](NC(=O)[C@H](C)NC(=O)[C@@H](N)CS)C(=O)N[C@@H](CO)C(=O)O [CAIS] (H-CAIS-OH)	1000 nM	+ (+ > 90% [3H] farnesyl diphosphate converted to [3H] farnesyl tetrapeptide)	
CC[C@H](C)[C@H](NC(=O)[C@@H](N)CS)C(=O)N[C@@H](Cc1ccc(F)cc1)C(=O)N[C@@H](CCSC)C(=O)O [CI(p-fluoro-F)M] (H-CI[Phe(4-F)]M-OH)	10 nM	- (- < 1% conversion)	
CC[C@H](C)[C@H](NC(=O)[C@@H](N)CS)C(=O)N[C@@H](Cc1ccccc1)C(=O)N[C@@H](CCSC)C(=O)O [CIFM, Cys-Ile-Phe-Met] (H-CIFM-OH)	10 nM	- (- < 1% conversion)	mechanism of inhibition with respect to Ras protein substrate [4]: competitive inhibitor; mechanism of inhibition with respect to farnesyl diphosphate [4]: not a competitive inhibitor; farnesylation substrate activity [5]: do not serve as effective substrates
CC[C@H](C)[C@H](NC(=O)[C@@H](N)CS)C(=O)N[C@@H](Cc1ccccc1)C(=O)N[C@@H](CCC(N)=O)C(=O)O [CIFQ, Cys-Ile-Phe-Gln] (H-CIFQ-OH)	23 nM	- (- < 1% conversion)	
CC[C@H](C)[C@H](NC(=O)[C@@H](NC(=O)[C@@H](N)CS)C(C)C)C(=O)N[C@@H](CCSC)C(=O)O [CVIM] (H-CVIM-OH)		+ (+ > 90% [3H] farnesyl diphosphate converted to [3H] farnesyl tetrapeptide)	IC50 [2]: 100 nM
CC[C@H](C)[C@H](NC(=O)[C@H](Cc1ccc(O)cc1)NC(=O)[C@@H](N)CS)C(=O)N[C@@H](CCSC)C(=O)O [CYIM] (H-CYIM-OH)	100 nM	+ (+ > 90% [3H] farnesyl diphosphate converted to [3H] farnesyl tetrapeptide)	
SSGCVLS [heptapeptide SSGCVLS, earlier found to serve as a substrate for isoprenylation]			substrate for isoprenylation [6]: served as a substrate for isoprenylation
